Source: patent US20240109918A1, “HETEROCYCLIC COMPOUNDS AND USES THEREOF” (Kumquat Biosciences Inc., priority 2022, published 2024)

What was measured:
KRASG12D = target: T1, KRASG12D (Homo sapiens, UniProt P01116, G12D); assay: Bio-Biochem-PPI-HTRF Ras-SOS1 interaction assay (KRAS G12D); format: biochemical; conditions: 5 nM
T1 construct: made in house; host or cells: E. coli BL21 (DE3)
Summary of the method: (§1)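 HTRF readout (ex 337 nm; em 620 and 665 nm) after ≥~10 min incubation; IC50 fitted from 665/620 ratio. GST-K-Ras wt or G12D plus anti-GST-Eu(K), His-hSOS1 plus anti-6His-XL665; duplicate dilutions, 10 μM top.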

KRASwt = target: T2, KRASwt (Homo sapiens, UniProt P01116); assay: Bio-Biochem-PPI-HTRF Ras-SOS1 interaction assay (KRAS wt); format: biochemical; conditions: 5 nM
T2 construct: made in house; host or cells: E. coli BL21 (DE3)
Summary of the method: as §1

T1 sequence (P01116 1-188 isoform P01116-2 G12D): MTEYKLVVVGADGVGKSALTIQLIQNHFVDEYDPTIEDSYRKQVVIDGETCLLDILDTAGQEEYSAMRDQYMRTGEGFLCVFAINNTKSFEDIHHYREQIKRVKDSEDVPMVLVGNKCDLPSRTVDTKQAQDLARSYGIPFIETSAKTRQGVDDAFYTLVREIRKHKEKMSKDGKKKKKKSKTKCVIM
T2 sequence (P01116 1-188 isoform P01116-2): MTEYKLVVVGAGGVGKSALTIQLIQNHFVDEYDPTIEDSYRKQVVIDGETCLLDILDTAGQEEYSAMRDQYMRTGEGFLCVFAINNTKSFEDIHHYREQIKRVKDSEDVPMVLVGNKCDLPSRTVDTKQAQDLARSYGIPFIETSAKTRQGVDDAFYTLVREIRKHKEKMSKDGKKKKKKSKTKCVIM

SMILES	IC50 (KRASG12D) [µM]	IC50 (KRASwt) [µM]
N#Cc1c(N)sc2c(F)ccc(-c3c(Cl)cc4c(N5CCCCC6(CN(C(=O)C7CC8(C7)CC8(F)F)C6)C5)nc(OC[C@@]56CCCN5C[C@H](F)C6)nc4c3F)c12 (stereo partly drawn) [compound 309, 2-amino-4-(6-chloro-4-(2-(1,1-difluorospiro[2.3]hexane-5-carbonyl)-2,6-diazaspiro[3.6]decan-6-yl)-8-fluoro-2-(((2R,7aS)-2-fluorotetrahydro-1H-pyrrolizin-7a(5H)-yl)methoxy)quinazolin-7-yl)-7-fluorobenzo[b]thiophene-3-carbonitrile]	< 5	< 5
N#Cc1c(N)sc2c(F)ccc(-c3c(Cl)cc4c(N5CCCCC6(CN(C(=O)C[C@H]7CCOC7)C6)C5)nc(OC[C@@]56CCCN5C[C@H](F)C6)nc4c3F)c12 [compound 304, 2-amino-4-(6-chloro-8-fluoro-2-(((2R,7aS)-2-fluorotetrahydro-1H-pyrrolizin-7a(5H)-yl)methoxy)-4-(2-(2-((R)-tetrahydrofuran-3-yl)acetyl)-2,6-diazaspiro[3.6]decan-6-yl)quinazolin-7-yl)-7-fluorobenzo[b]thiophene-3-carbonitrile]	< 5	< 5
N#Cc1c(N)sc2c(F)ccc(-c3c(Cl)cc4c(N5CCCCC6(CN(C(=O)CC7CC7(F)F)C6)C5)nc(OC[C@@]56CCCN5C[C@H](F)C6)nc4c3F)c12 (stereo partly drawn) [compound 235, 2-amino-4-(6-chloro-4-(2-(2-(2,2-difluorocyclopropyl)acetyl)-2,6-diazaspiro[3.6]decan-6-yl)-8-fluoro-2-(((2R,7aS)-2-fluorotetrahydro-1H-pyrrolizin-7a(5H)-yl)methoxy)quinazolin-7-yl)-7-fluorobenzo[b]thiophene-3-carbonitrile]	< 5	< 5
CN(C)C/C=C/C(=O)N1CC2(CCCN(c3nc(OC[C@@]45CCCN4C[C@H](F)C5)nc4c(F)c(-c5ccc(F)c6sc(N)nc56)c(Cl)cc34)C2)C1 [compound 181, (E)-1-(6-(7-(2-amino-7-fluorobenzo[d]thiazol-4-yl)-6-chloro-8-fluoro-2-(((2R,7aS)-2-fluorotetrahydro-1H-pyrrolizin-7a(5H)-yl)methoxy)quinazolin-4-yl)-2,6-diazaspiro[3.5]nonan-2-yl)-4-(dimethylamino)but-2-en-1-one]	< 5	< 5
Cc1cc(C(=O)N2CC3(CCCCN(c4nc(OC[C@@]56CCCN5C[C@H](F)C6)nc5c(F)c(-c6ccc(F)c7sc(N)c(C#N)c67)c(Cl)cc45)C3)C2)nn1C(F)F [compound 209, 2-amino-4-(6-chloro-4-(2-(1-(difluoromethyl)-5-methyl-1H-pyrazole-3-carbonyl)-2,6-diazaspiro[3.6]decan-6-yl)-8-fluoro-2-(((2R,7aS)-2-fluorotetrahydro-1H-pyrrolizin-7a(5H)-yl)methoxy)quinazolin-7-yl)-7-fluorobenzo[b]thiophene-3-carbonitrile]	< 5	< 5
Cc1ccnc(C(C)C)c1-n1c(=O)nc(N2CCOC3(CNC3)C2)c2cc(F)c(-c3ccc(F)c4sc(N)c(C#N)c34)nc21 [compound 108, 2-amino-7-fluoro-4-(6-fluoro-1-(2-isopropyl-4-methylpyridin-3-yl)-2-oxo-4-(5-oxa-2,8-diazaspiro[3.5]nonan-8-yl)-1,2-dihydropyrido[2,3-d]pyrimidin-7-yl)benzo[b]thiophene-3-carbonitrile]	≥ 5	≥ 5
C#Cc1c(F)ccc2cc(O)cc(-c3ncc4c(N5CCCCC6(CN(C(=O)[C@H]7CC7(F)F)C6)C5)nc(OC[C@@]56CCCN5C[C@H](F)C6)nc4c3F)c12 [compound 215, ((R)-2,2-difluorocyclopropyl) (6-(7-(8-ethynyl-7-fluoro-3-hydroxynaphthalen-1-yl)-8-fluoro-2-(((2R,7aS)-2-fluorotetrahydro-1H-pyrrolizin-7a(5H)-yl)methoxy)pyrido[4,3-d]pyrimidin-4-yl)-2,6-diazaspiro[3.6]decan-2-yl)methanone]	< 5	< 5
N#Cc1c(N)sc2c(F)ccc(-c3c(Cl)cc4c(N5CCC(CO)CC6(CN(C(=O)[C@@H]7CC7(F)F)C6)C5)nc(OC[C@@]56CCCN5C[C@H](F)C6)nc4c3F)c12 (stereo partly drawn) [compound 332, 2-amino-4-(6-chloro-4-(2-((S)-2,2-difluorocyclopropane-1-carbonyl)-9-(hydroxymethyl)-2,6-diazaspiro[3.6]decan-6-yl)-8-fluoro-2-(((2R,7aS)-2-fluorotetrahydro-1H-pyrrolizin-7a(5H)-yl)methoxy)quinazolin-7-yl)-7-fluorobenzo[b]thiophene-3-carbonitrile]	< 5	< 5
CN1CCC[C@H]1COc1nc(N2CCCC3(CN(C(N)=O)C3)C2)c2cc(Cl)c(-c3cccc4sc(N)nc34)c(F)c2n1 [compound 124, 6-(7-(2-aminobenzo[d]thiazol-4-yl)-6-chloro-8-fluoro-2-(((S)-1-methylpyrrolidin-2-yl)methoxy)quinazolin-4-yl)-2,6-diazaspiro[3.5]nonane-2-carboxamide]	< 5	< 5
N#Cc1c(N)sc2c(F)ccc(-c3c(Cl)cc4c(N5CCCCC6(CN(C(=O)C7(C(F)(F)F)CC7)C6)C5)nc(OC[C@@]56CCCN5C[C@H](F)C6)nc4c3F)c12 [compound 244, 2-amino-4-(6-chloro-8-fluoro-2-(((2R,7aS)-2-fluorotetrahydro-1H-pyrrolizin-7a(5H)-yl)methoxy)-4-(2-(1-(trifluoromethyl)cyclopropane-1-carbonyl)-2,6-diazaspiro[3.6]decan-6-yl)quinazolin-7-yl)-7-fluorobenzo[b] thiophene-3-carbonitrile]	< 5	< 5
COc1nc(N2CCCCC3(CN(C(C)=O)C3)C2)c2cc(Cl)c(-c3ccc(F)c4sc(N)c(C#N)c34)c(F)c2n1 [compound 256, 4-(4-(2-acetyl-2,6-diazaspiro[3.6]decan-6-yl)-6-chloro-8-fluoro-2-methoxyquinazolin-7-yl)-2-amino-7-fluorobenzo[b]thiophene-3-carbonitrile]	< 5	< 5
C[C@H](Oc1nc(N2CCCC3(CN(C(=O)c4ccnn4C)C3)C2)c2cc(Cl)c(-c3ccc(F)c4sc(N)c(C#N)c34)c(F)c2n1)[C@@H]1CCCN1C [compound 127, 2-amino-4-(6-chloro-8-fluoro-4-(2-(1-methyl-1H-pyrazole-5-carbonyl)-2,6-diazaspiro[3.5]nonan-6-yl)-2-((S)-1-((S)-1-methylpyrrolidin-2-yl)ethoxy)quinazolin-7-yl)-7-fluorobenzo[b]thiophene-3-carbonitrile]	< 5	< 5
